Data taken from US20110065694A1 (priority 2009, published 2011).
Read-outs that look alike come from different tables or passages of the source. Blank lines part the entries; values can stand above or below the compound they belong to.

What was measured:
[1] = tested on: Sprague-Dawley rats; test: Rat EEG assay; type: in vivo; details: for number of wake and non-REM sleep bouts / wake bout duration / wake promotion / time spent in REM sleep / time spent in non-REM sleep / time spent in wake: EEG; for normalized power in the 40-60 Hz range (EEG spectral analysis): EEG spectra; for wake promotion: first 6 hours post-dosing; for time spent in REM sleep / time spent in non-REM sleep / time spent in wake: relative to vehicle treated animals
Description: The rat EEG assay was designed to measure electrical signals from the brain as a proxy for in vivo biological activity at the H3 receptor.
Specifically, animals were housed in a temperature-controlled recording room under a 12 hour/12 hour light/dark cycle, with food and water available ad libitum. Eight male Sprague-Dawley rats were implanted with chronic recording devices for continuous recordings of electroencephalograph (EEG) via telemetry (Data Sciences Inc). A repeated measures design was employed in which each rat received eight separate dosings of the compound being tested with a minimum of 3 days between doses. […] EEG data were scored visually in 10 second epochs for wake, REM, and non-REM states. Scored data were analyzed and expressed as time spent in each state per hour. Cumulative time spent in wake, non-REM, and REM states were calculated for the 6 hour recording period. To determine whether any of the pharmacological treatments affected the consolidation of behavioral states, the duration and number of bouts for each state were calculated in hourly bins. A “bout” consisted of a minimum of two consecutive 10-second epochs of a given state and ended with any single state change epoch. The EEG spectra during wake and non-REM sleep were analyzed offline with a fast Fourier transform algorithm (NeuroScore software, Data Sciences Inc) on all epochs without a visually detectable artifact. Wake EEG spectra were analyzed in 1 Hz bins. Data were analyzed using two-way repeated-measures ANOVA.
For both compounds, there was an increase in the time spent in wake, a decrease in the time spent in non-REM sleep, and no change in the time spent in REM sleep relative to vehicle treated animals.

[2] = target: T1, H3 receptor (Rattus norvegicus, UniProt Q9QYN8); test: Rat H3 ex vivo receptor occupancy assay; details: dose giving 50% H3 receptor occupancy; ex vivo binding of [3H] R-α-methylhistamine in rat frontal cortical membranes
T1 construct: membranes to be tested were prepared from brain frontal cortex membranes by homogenization; from tissue; host or cells: frontal cortex of adult male Sprague-Dawley rats
T1 sequence (Q9QYN8 whole entry): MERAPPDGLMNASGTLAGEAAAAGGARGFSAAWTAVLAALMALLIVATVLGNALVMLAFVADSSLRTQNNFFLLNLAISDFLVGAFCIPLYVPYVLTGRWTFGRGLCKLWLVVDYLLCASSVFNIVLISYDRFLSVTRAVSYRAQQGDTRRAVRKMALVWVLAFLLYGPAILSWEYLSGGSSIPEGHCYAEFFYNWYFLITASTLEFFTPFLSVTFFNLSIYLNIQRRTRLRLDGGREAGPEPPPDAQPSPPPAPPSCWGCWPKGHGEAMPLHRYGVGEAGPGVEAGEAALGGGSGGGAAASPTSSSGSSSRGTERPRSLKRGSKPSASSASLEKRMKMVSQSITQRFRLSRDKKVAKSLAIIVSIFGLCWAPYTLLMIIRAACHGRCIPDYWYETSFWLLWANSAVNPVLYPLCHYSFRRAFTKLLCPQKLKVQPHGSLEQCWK
Description: This assay was designed to measure occupancy of H3 receptors by compounds provided herein by measuring the competition of binding to the H3 receptor with a radiolabeled ligand known to bind to the H3 receptor. More specifically, receptor occupancy was determined by ex vivo binding studies in rat cortical membranes.
Adult male Sprague-Dawley rats were treated with vehicle or compound at four different dose levels. After an appropriate pre-treatment time (typically 30 min to 1 hr), membranes to be tested were prepared from brain frontal cortex membranes by homogenization in ice-cold assay buffer. Frontal cortical membranes (400 μL containing an equivalent of 5 mg wet weight of tissue/tube) were incubated with 50 µL of [^3H] R-α-methylhistamine (final concentration 2 nM) and either 50 μL of buffer (total binding) or 50 μL of imetit (10 μM; non-specific binding) for 30 min at 25° C. in triplicates. Membrane bound radioactivity was recovered by filtration under vacuum through Skatron 11731 filters, pre-soaked in 0.5% PEI. Filters were rapidly washed with ice-cold 50 mM Tris buffer (wash setting 9,9,0) and radioactivity was determined by liquid scintillation counting (1 mL Packard MV Gold Scintillator). The amount of radioactivity in the membranes at the different doses was used generate a dose response curve and to calculate the ED50 (the dose that results in 50% receptor occupancy).
ED50 is the amount of drug at which 50% of the H3 receptors are occupied by the drug as measured by the amount of radioactivity measured at that dose relative to that measured when no drug (or vehicle) was administered.

[3] = target: human histamine H3 receptor (Homo sapiens, UniProt Q9Y5N1); test: H3 GTPγS assay (SPA method), histamine H3 in vitro assay; type: biochemical
Chain of human histamine H3 receptor (Q9Y5N1 whole entry): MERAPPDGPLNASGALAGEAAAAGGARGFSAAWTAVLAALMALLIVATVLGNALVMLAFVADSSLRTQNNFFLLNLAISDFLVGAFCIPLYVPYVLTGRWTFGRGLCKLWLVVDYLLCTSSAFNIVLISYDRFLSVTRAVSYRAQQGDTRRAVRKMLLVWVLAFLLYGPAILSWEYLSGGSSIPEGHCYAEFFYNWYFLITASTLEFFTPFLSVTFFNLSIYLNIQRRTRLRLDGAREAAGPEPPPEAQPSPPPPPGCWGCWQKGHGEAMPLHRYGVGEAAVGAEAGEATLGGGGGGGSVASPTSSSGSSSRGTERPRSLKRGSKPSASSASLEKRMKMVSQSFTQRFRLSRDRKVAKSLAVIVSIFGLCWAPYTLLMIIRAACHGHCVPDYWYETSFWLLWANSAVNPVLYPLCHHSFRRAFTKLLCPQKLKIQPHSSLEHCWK
Description: Briefly, cells expressing the human histamine H3 receptor were homogenized in 15 mM Tris-HCl pH 7.5, 2 mM MgCl2, 0.3 mM EDTA, and 1 mM EGTA. […] Membranes were frozen in liquid nitrogen until use. On the day of the assay, membranes were thawed and diluted in assay buffer (20 mM HEPES pH 7.4, 100 mM NaCl, 10 μg/ml saponin, 1 mM MgCl2) to give 500 μg/ml and mixed (v/v) with GDP in assay buffer for a final GDP concentration of 10 μM and incubated on ice for at least […]. PVT-WGA beads (Amersham, RPNQ001) were diluted in assay buffer at 50 mg/mL and mixed with GTPγ[^35S] (Amersham, SJ1308) diluted in assay buffer to give ˜25,000 dpm/10 μL and mixed vol/vol just before the start of the reaction.
For antagonists testing, 10 μL of a reference agonist ([…]) instead of 10 μL buffer was added at a concentration corresponding to the EC80 (30 nM).
The compounds provided herein were tested in the histamine H3 in vitro assay. In one embodiment, the respective HCl salts of the compounds provided herein were prepared using standard chemical procedures and tested in the histamine H3 in vitro assay.

[4] = membranes of cells expressing human H3, GTPγ[35S] SPA, antagonist testing with reference agonist at EC80 (30 nM), in one embodiment HCl salts tested, read-out: Potency (functional potency as indicated by IC50)

ED50 [2]: ≤ 1 mg/kg
IC50 [3, 4]: < 10 nM
Compound: c1cn2cc(-c3ccc4c(c3)nc3n4CCCN(C4CCC4)CC3)ccc2n1 [Compound 59, 3-cyclobutyl-10-(imidazo[1,2-a]pyridin-6-yl)-1,2,3,4,5,6-hexahydrobenzo[4,5]imidazo[1,2-a][1,5]diazocine]
number of wake and non-REM sleep bouts [1]: decrease
wake bout duration [1]: increase
normalized power in the 40-60 Hz range (EEG spectral analysis) [1]: increase
wake promotion [1]: wake promoting
time spent in REM sleep [1]: no change
time spent in non-REM sleep [1]: decrease
time spent in wake [1]: increase

ED50 [2]: ≤ 1 mg/kg
IC50 [3, 4]: < 10 nM
Compound: c1ccc2c(c1)CCN(Cc1ccc3c(c1)nc1n3CCCN(C3CCC3)CC1)C2 [Compound 85, 3-cyclobutyl-10-((3,4-dihydroisoquinolin-2(1H)-yl)methyl)-1,2,3,4,5,6-hexahydrobenzo[4,5]imidazo[1,2-a][1,5]diazocine]

ED50 [2]: ≥ 1 mg/kg
IC50 [3, 4]: < 10 nM
Compound: c1ccc2c(c1)CCN(Cc1ccc3c(c1)nc1n3CCN3CCCC[C@@H]3C1)C2 (single isomer, unassigned) [Compound 64]

IC50 [3, 4]: > 1000 nM
Compound: c1cn2cc(-c3ccc4c(c3)nc3n4CC4CC3CN4C3CCC3)ccc2n1 (stereo not shown) [Compound 37, 3-cyclobutyl-8-(imidazo[1,2-a]pyridin-6-yl)-2,3,4,5-tetrahydro-1H-2,5-methanobenzo[4,5]imidazo[1,2-d][1,4]diazepine]

IC50 [3, 4]: < 100 nM
Compound: Brc1ccc2c(c1)nc1n2CCCN2CCCC2C1 (stereo not shown) [Compound 79, 11-bromo-1,2,3,5,6,7,14,14a-octahydrobenzo[4,5]imidazo[1,2-a]pyrrolo[2,1-d][1,5]diazocine]

Compound: c1cc2c(cc1CN1CCOCC1)nc1n2CC2CCC(C1)N2C1CCC1 (stereo not shown) [Compound 62, 4-((13-cyclobutyl-6,7,8,9,10,11-hexahydro-7,10-epiminobenzo[4,5]imidazo[1,2-a]azocin-3-yl)methyl)morpholine]
IC50 [3, 4]: < 100 nM

Compound: N#Cc1ccc(-c2ccc3c(c2)nc2n3CC3CCC(C2)N3C2CCC2)cc1 (single isomer, unassigned) [Compound 44]
IC50 [3, 4]: < 10 nM

IC50 [3, 4]: < 100 nM
Compound: c1cn2cc(-c3ccc4c(c3)nc3n4CCCN4CCCCC4C3)ccc2n1 (single isomer, unassigned) [Compound 71]

IC50 [3, 4]: < 10 nM
Compound: N#Cc1ccc(-c2ccc3c(c2)nc2n3CCN3CCCCC3C2)cc1 (stereo not shown) [Compound 8, 4-(1,2,3,4,6,7,14,14a-octahydrobenzo[4,5]imidazo-[1,2-d]pyrido[2,1-g][1,4]diazepin-11-yl)benzonitrile]

IC50 [3, 4]: > 1000 nM
Compound: Brc1ccc2c(c1)nc1n2CCN(C2CCC2)C1 [Compound 52, 8-bromo-2-cyclobutyl-1,2,3,4-tetrahydrobenzo[4,5]imidazo[1,2-a]pyrazine]

ED50 [2]: ≥ 1 mg/kg
IC50 [3, 4]: < 10 nM
Compound: c1cc2c(cc1CN1CCOCC1)nc1n2CCCN(C2CCC2)CC1 [Compound 84, 4-((3-cyclobutyl-1,2,3,4,5,6-hexahydrobenzo[4,5]imidazo[1,2-a][1,5]diazocin-10-yl)methyl)morpholine]

ED50 [2]: ≤ 1 mg/kg
IC50 [3, 4]: < 10 nM
Compound: c1cn2cc(-c3ccc4c(c3)nc3n4CCN4CCCC[C@@H]4C3)ccc2n1 (single isomer, unassigned) [Compound 48]
number of wake and non-REM sleep bouts [1]: decrease
wake bout duration [1]: increase
normalized power in the 40-60 Hz range (EEG spectral analysis) [1]: increase
wake promotion [1]: wake promoting
time spent in REM sleep [1]: no change
time spent in non-REM sleep [1]: decrease
time spent in wake [1]: increase

IC50 [3, 4]: > 1000 nM
Compound: c1cc2c(cc1CN1CCOCC1)nc1n2CC2CC1CN2C1CCC1 (stereo not shown) [Compound 39, 4-((3-cyclobutyl-2,3,4,5-tetrahydro-1H-2,5-methanobenzo[4,5]imidazo[1,2-d][1,7]diazepin-8-yl)methyl)morpholine]

IC50 [3, 4]: < 10 nM
Compound: c1cn2cc(-c3ccc4c(c3)nc3n4CCCN4CCCC4C3)ccc2n1 (single isomer, unassigned) [Compound 83]

IC50 [3, 4]: < 100 nM
Compound: c1ccc2c(c1)CCN(Cc1ccc3c(c1)nc1n3CCCN3CCCCC3C1)C2 (stereo not shown) [Compound 69]

Compound: NCc1ccc(-c2ccc3c(c2)nc2n3C3CCC2CN(C2CCC2)C3)cc1 (stereo not shown) [Compound 31, (4-(3-cyclobutyl-2,3,4,5-tetrahydro-1H-1,5-ethanobenzo[4,5]imidazo[1,2-d][1,4]diazepin-8-yl)phenyl)methanamine]
IC50 [3]: < 100 nM

IC50 [3, 4]: < 100 nM
Compound: Brc1ccc2c(c1)nc1n2CCN2CCCCC2C1 (stereo not shown) [Compound 7, 11-bromo-1,2,3,4,6,7,14,14a-octahydrobenzo-[4,5]imidazo[1,2-d]pyrido[2,1-g][1,4]diazepine]

IC50 [3, 4]: < 100 nM
Compound: c1ccc2c(c1)CCN(Cc1ccc3c(c1)nc1n3CCN3CCCC[C@H]3C1)C2 [Compound 65, (S)-11-((3,4-dihydroisoquinolin-2(1H)-yl)methyl)-1,2,3,4,6,7,14,14a-octahydrobenzo[4,5]imidazo[1,2-d]pyrido[2,1-g][1,4]diazepine]
